These results are taken from patent US20080161340A1, “Tetrahydroquinilinones, tetrahydronaphthyridones and derivatives thereof” (priority 2006, published 2008).

Holding throughout (type): cell-based
Test [1] deals with T1, hCB2 (Homo sapiens, UniProt P34972).
T1 construct: host or cells: CHO-K1
Nature of the test: cAMP assay (LANCE TR-FRET) in CHO-K1 cells stably expressing hCB2, agonist/inverse agonist. The conditions noted are these: intracellular cAMP, CHO-K1 hCB2 cells prestimulated with NKH-477; + agonist, − inverse agonist. As for the experimental part:
(§1) The ability of compounds to act as agonists or inverse agonists at human CB2 and CB1 receptors (hCB2, hCB1, respectively) was determined by measuring changes in intracellular cAMP levels. Chinese Hamster Ovary (CHO-K1) cell lines stably expressing hCB2 (Genebank: X74328) or hCB1 (Genebank: X54937) were purchased from Euroscreen (Gosselies, Belgium).
(§2) Cell lines were grown in suspension in EX-CELL 302 CHO Serum-free medium (Sigma, cat #14324C) supplemented with 1% Fetal Bovine Serum, glutamine and non-essential amino-acids under 0.4 mg/mL G418 selection.
(§3) Receptor mediated responses were determined by measuring changes in intracellular cAMP using LANCE cAMP detection kit (cat #AD0264, PerkinElmer, Wellesley, Mass.) based on time-resolved fluorescence resonance energy transfer (TR-FRET). Changes in cAMP were determined in cells pre-incubated with IBMX (isobutyl methylxanthine) and prestimulated with NKH-477 (a water soluble forskolin derivative, cat #1603, Tocris, Ellisville, Mo.) to increase basal cAMP levels as detailed below.
(§4) On the day of the experiment, cells were spun at low speed for 5 min at room temperature. The supernatant was removed and cells were resuspended in stimulation buffer (Hanks Buffered Salt Solution/5 mM HEPES, containing 0.5 mM IBMX (cat #17018, Sigma) and 0.02% BSA (PerkinElmer, cat #CR84-100)). Cell clumps were removed by filtering through cell strainer 40 μm (BD Falcon, Discovery Labware, Bedford, Mass.) and diluted to 2×10^5 cells/mL. Antibody supplied with the LANCE cAMP immunoassay kit was then added according to the manufacturer's instructions. An aliquot of cells was taken for un-induced controls. To the remaining cells was added NKH-477 (a water soluble forskolin derivative, Tocris cat #1603) to a final concentration of 2-8 μM. Cells were then incubated for 30 min at room temperature prior to adding to Proxiplates containing test compounds (final DMSO concentration was less than 0.5%) with a Multidrop bulk dispenser, followed by a sixty minute incubation at room temperature. The response was stopped by addition of the detection mix supplied with the LANCE kit.
(§5) The reagents were allowed to equilibrate for three hours prior to reading on an Envision multi-mode detector (PerkinElmer). TR-FRET was measured using a 330-380 nm excitation filter, a 665 nm emission filter, dichroic mirror 380 nm and Z=1 mm.
(§6) Cyclic AMP concentrations in each well were back-calculated from a cAMP standard curve run concurrently during each assay. Each plate contained 16 wells of forskolin stimulated cells and 16 wells of forskolin plus CP55,940-treated. CP55,940-treated cells were treated with CP55,940 (Tocris cat. # 0949) at 1 μm and the maximal response was used as the full range (100%) standard. WIN55,212 (Tocris cat. # 1038) was used as an internal standard. Concentrations of cAMP were expressed as a percent of the difference of these two groups of wells. Concentration-response data including ECso (the concentration of compound producing 50% of the maximal response) and intrinsic activity (the percent maximal activation compared to full activation by CP55,940) were determined using a four-parameter non-linear regression algorithm (Xlfit equation 251, IDBS).
In general terms: cAMP levels reflect the balance of adenylyl cyclase and phosphodiesterase activity.

For test [2], the target named is T2, rCB2 (Rattus norvegicus, UniProt Q9QZN9).
T2 sequence (Q9QZN9 1-360): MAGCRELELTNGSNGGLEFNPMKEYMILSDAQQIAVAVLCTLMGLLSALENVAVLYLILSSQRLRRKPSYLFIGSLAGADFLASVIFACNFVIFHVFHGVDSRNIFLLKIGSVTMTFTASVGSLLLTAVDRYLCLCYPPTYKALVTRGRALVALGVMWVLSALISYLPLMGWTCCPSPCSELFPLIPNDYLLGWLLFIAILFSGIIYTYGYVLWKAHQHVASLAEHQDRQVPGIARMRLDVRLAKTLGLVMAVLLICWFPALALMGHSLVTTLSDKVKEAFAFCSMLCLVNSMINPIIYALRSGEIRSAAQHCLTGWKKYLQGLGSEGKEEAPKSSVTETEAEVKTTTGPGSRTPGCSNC
The test is described as follows: cAMP assay, rCB2 in Table 7, agonist/inverse agonist. The following applies: intracellular cAMP; + agonist, − inverse agonist. The protocol: as §3, §4, §5, §6

For test [3], the target named is T3, hCB1 (Homo sapiens, UniProt P21554).
T3 construct: host or cells: CHO-K1
T3 sequence (P21554 whole entry): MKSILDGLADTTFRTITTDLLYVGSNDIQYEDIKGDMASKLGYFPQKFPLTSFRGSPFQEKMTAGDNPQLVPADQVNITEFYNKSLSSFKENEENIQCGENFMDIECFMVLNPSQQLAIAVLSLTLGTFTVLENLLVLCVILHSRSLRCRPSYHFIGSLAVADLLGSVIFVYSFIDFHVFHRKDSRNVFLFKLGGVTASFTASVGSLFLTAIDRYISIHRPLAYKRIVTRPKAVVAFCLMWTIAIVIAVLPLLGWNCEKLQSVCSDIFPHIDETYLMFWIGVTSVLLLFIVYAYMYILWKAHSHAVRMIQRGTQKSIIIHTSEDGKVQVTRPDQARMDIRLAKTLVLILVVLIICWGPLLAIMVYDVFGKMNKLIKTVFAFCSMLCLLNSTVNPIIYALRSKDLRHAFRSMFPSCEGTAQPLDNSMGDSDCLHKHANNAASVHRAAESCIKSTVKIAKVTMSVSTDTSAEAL
The test is described as follows: cAMP assay (LANCE TR-FRET) in CHO-K1 cells stably expressing hCB1, agonist/inverse agonist. The following applies: intracellular cAMP, CHO-K1 hCB1 cells prestimulated with NKH-477, + agonist, − inverse agonist; for EC50: read-out: hCB1 EC50 class. As for the experimental part: as §1, §2, §3, §4, §5, §6

The structures appear in SMILES notation.

T1 sequence (P34972 whole entry): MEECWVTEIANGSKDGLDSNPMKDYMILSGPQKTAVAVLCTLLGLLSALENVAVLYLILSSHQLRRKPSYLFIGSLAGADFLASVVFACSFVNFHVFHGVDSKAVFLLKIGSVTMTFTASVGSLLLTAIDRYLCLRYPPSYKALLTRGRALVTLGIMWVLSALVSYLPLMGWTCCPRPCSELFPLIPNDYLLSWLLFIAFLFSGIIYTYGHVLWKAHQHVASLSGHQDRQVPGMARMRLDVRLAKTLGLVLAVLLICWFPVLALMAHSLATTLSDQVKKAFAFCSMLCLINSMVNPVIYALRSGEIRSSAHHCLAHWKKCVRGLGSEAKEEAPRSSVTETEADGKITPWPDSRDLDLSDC

For orientation: EC50 means the concentration at which the effect is half-maximal. Turning to `CS(=O)(=O)N1CCc2c(cc(-c3cccc(Cl)c3)c(=O)n2CC2CCC2)C1` [Compound 41, 3-(3-chlorophenyl)-1-(cyclobutylmethyl)-6-(methylsulfonyl)-5,6,7,8-tetrahydro-1,6-naphthyridin-2(1H)-one], in test [1], the “hCB2 EC50 class” value is listed as “+A”. The “rCB2 EC50 class” value in test [2] is “+A”. Besides, the EC50 in test [3] was over 10 µM.

`CC(=O)N1CCc2c(cc(-c3cccnc3)c(=O)n2CC2CCC2)C1` [Compound 46, 6-acetyl-1-(cyclobutylmethyl)-3-(pyridin-3-yl)-5,6,7,8-tetrahydro-1,6-naphthyridin-2(1H)-one]: the “hCB2 EC50 class” value in test [1] is “+B”. The “rCB2 EC50 class” value in test [2] is recorded as “+B”. In test [3], the EC50 is over 10 µM.

Take `CC(=O)N1CCc2c(cc(-c3ccccc3F)c(=O)n2CC2CCC2)C1` [Compound 54, 6-acetyl-1-(cyclobutylmethyl)-3-(2-fluorophenyl)-5,6,7,8-tetrahydro-1,6-naphthyridin-2(1H)-one]: the “hCB2 EC50 class” value in test [1] is “+B”. Moreover, the “rCB2 EC50 class” value in test [2] is “+A”. In addition, in test [3], the EC50 is over 10 µM.

As for `O=c1c(Cc2ccc(F)cc2)cc2c(n1CC1CCC1)CCCC2` [Compound 33, 1-(cyclobutylmethyl)-3-(4-fluorobenzyl)-5,6,7,8-tetrahydroquinolin-2(1H)-one], in test [1], the “hCB2 EC50 class” value is recorded as “+B”. In addition, the “rCB2 EC50 class” value in test [2] is listed as “+B”. Further, the EC50 in test [3] is over 10 µM.

As for `O=c1c(-c2cccs2)cc2c(n1CC1CCC1)CCCC2` [Compound 9, 1-(cyclobutylmethyl)-3-(thiophen-2-yl)-5,6,7,8-tetrahydroquinolin-2(1H)-one], the “hCB2 EC50 class” value in test [1] is on record as “+B”. Further, the “rCB2 EC50 class” value in test [2] is listed as “+C”. Further, in test [3], the EC50 was over 10 µM.

`O=c1c(-c2ccccc2Cl)cc2c(n1CC1CCC1)CCCC2` [Compound 18, 3-(2-chlorophenyl)-1-(cyclobutylmethyl)-5,6,7,8-tetrahydroquinolin-2(1H)-one]: the “hCB2 EC50 class” value in test [1] was “+B”. The “rCB2 EC50 class” value in test [2] is given as “+B”. For the same compound, the EC50 in test [3] was over 10 µM.

For the compound `O=c1c(-c2cccc(C(F)(F)F)c2)cc2c(n1CC1CCC1)CCCC2` [Compound 6, 1-(cyclobutylmethyl)-3-(3-(trifluoromethyl)phenyl)-5,6,7,8-tetrahydroquinolin-2(1H)-one], in test [1], the “hCB2 EC50 class” value is recorded as “+A”. For the same compound, in test [2], the “rCB2 EC50 class” value is reported as “+A”. Besides, in test [3], the EC50 is over 10 µM.

As for `CS(=O)(=O)N1CCc2c(cc(-c3ccccc3F)c(=O)n2CC2CCC2)C1` [Compound 53, 1-(cyclobutylmethyl)-3-(2-fluorophenyl)-6-(methylsulfonyl)-5,6,7,8-tetrahydro-1,6-naphthyridin-2(1H)-one], in test [1], the “hCB2 EC50 class” value is reported as “+A”. Besides, the “rCB2 EC50 class” value in test [2] is reported as “+A”. Also, the EC50 in test [3] was over 10 µM.

On to `Cn1cc(-c2cc3c(n(CC4CCC4)c2=O)CCCC3)cn1` [Compound 26, 1-(cyclobutylmethyl)-3-(1-methyl-1H-pyrazol-4-yl)-5,6,7,8-tetrahydroquinolin-2(1H)-one], for which the “hCB2 EC50 class” value in test [1] is given as “+B”. For the same compound, in test [2], the “rCB2 EC50 class” value is “+A”. Also, in test [3], the EC50 is over 10 µM.

With `COc1cccc(-c2cc3c(n(CC4CCC4)c2=O)CCN(S(C)(=O)=O)C3)c1` [Compound 52, 1-(cyclobutylmethyl)-3-(3-methoxyphenyl)-6-(methylsulfonyl)-5,6,7,8-tetrahydro-1,6-naphthyridin-2(1H)-one], the “hCB2 EC50 class” value in test [1] is given as “+B”. For the same compound, in test [2], the “rCB2 EC50 class” value is “+A”. Further, in test [3], the EC50 was over 10 µM.

For the compound `CC(=O)N1CCc2c(cc(-c3ccc(C(F)(F)F)cc3)c(=O)n2CC2CCC2)C1` [Compound 44, 6-acetyl-1-(cyclobutylmethyl)-3-(4-(trifluoromethyl)phenyl)-5,6,7,8-tetrahydro-1,6-naphthyridin-2(1H)-one], in test [1], the “hCB2 EC50 class” value is “+B”. Moreover, the “rCB2 EC50 class” value in test [2] is given as “+B”. In addition, in test [3], the half-maximal effective concentration (EC50) was over 10 µM.

With `CC(=O)N1CCc2c(cc(-c3cccc(Cl)c3)c(=O)n2CC2CCC2)C1` [Compound 42, 6-acetyl-3-(3-chlorophenyl)-1-(cyclobutylmethyl)-5,6,7,8-tetrahydro-1,6-naphthyridin-2(1H)-one], the “hCB2 EC50 class” value in test [1] is on record as “+A”. Moreover, the “rCB2 EC50 class” value in test [2] is “+A”. In test [3], the “hCB1 EC50 class” value is recorded as “+C”.

As to `O=c1c(-c2ccc(C(F)(F)F)cc2)cc2c(n1CC1CCCCC1)CCCC2` [Compound 23, 1-(cyclohexylmethyl)-3-(4-(trifluoromethyl)phenyl)-5,6,7,8-tetrahydroquinolin-2(1H)-one], the “hCB2 EC50 class” value in test [1] is recorded as “+B”. Further, the “rCB2 EC50 class” value in test [2] is “−B”. The “hCB1 EC50 class” value in test [3] is listed as “+B”.

For `O=c1c(-c2cccnc2)cc2c(n1CC1CCC1)CCCC2` [Compound 10, 1-(cyclobutylmethyl)-3-(pyridin-3-yl)-5,6,7,8-tetrahydroquinolin-2(1H)-one], in test [1], the “hCB2 EC50 class” value is given as “+B”. Moreover, in test [2], the “rCB2 EC50 class” value is reported as “+B”. Moreover, the EC50 in test [3] was over 10 µM.

For the compound `Cc1ccccc1Cc1cc2c(n(CC3CCC3)c1=O)CCCC2` [Compound 30, 1-(cyclobutylmethyl)-3-(2-methylbenzyl)-5,6,7,8-tetrahydroquinolin-2(1H)-one], the “hCB2 EC50 class” value in test [1] is “+A”. Further, the “rCB2 EC50 class” value in test [2] is recorded as “+A”. For the same compound, the EC50 in test [3] is over 10 µM.

Turning to `CS(=O)(=O)N1CCc2c(cc(-c3cccc(Cl)c3)c(=O)n2CC2CC2)C1` [Compound 48, 3-(3-chlorophenyl)-1-(cyclopropylmethyl)-6-(methylsulfonyl)-5,6,7,8-tetrahydro-1,6-naphthyridin-2(1H)-one], in test [1], the “hCB2 EC50 class” value is on record as “+A”. In test [2], the “rCB2 EC50 class” value was “+A”. Besides, the EC50 in test [3] was over 10 µM.

For the compound `O=c1c(-c2ccccc2F)cc2c(n1CC1CCC1)CCCC2` [Compound 15, 1-(cyclobutylmethyl)-3-(2-fluorophenyl)-5,6,7,8-tetrahydroquinolin-2(1H)-one], in test [1], the “hCB2 EC50 class” value is recorded as “+B”. For the same compound, the “rCB2 EC50 class” value in test [2] is “+B”. Also, in test [3], the EC50 is over 10 µM.

As for `COc1ncc(-c2cc3c(n(CC4CCC4)c2=O)CCCC3)c(OC)n1` [Compound 29, 1-(cyclobutylmethyl)-3-(2,4-dimethoxypyrimidin-5-yl)-5,6,7,8-tetrahydroquinolin-2(1H)-one], the “hCB2 EC50 class” value in test [1] is listed as “+B”. The “rCB2 EC50 class” value in test [2] is listed as “+A”. Also, the EC50 in test [3] was over 10 µM.

Consider `O=c1c(-c2ccccc2)cc2c(n1CC1CCC1)CCCC2` [Compound 1, 1-(cyclobutylmethyl)-3-phenyl-5,6,7,8-tetrahydroquinolin-2(1H)-one], for which the “hCB2 EC50 class” value in test [1] is reported as “+B”. In test [2], the “rCB2 EC50 class” value was “+A”. Moreover, the EC50 in test [3] was over 10 µM.

For `O=c1c(-c2cc3c(n(CC4CCC4)c2=O)CCCC3)cc2c(n1CC1CCC1)CCCC2` [Compound 5, 1,1′-bis(cyclobutylmethyl)-5,5′,6,6′,7,7′,8,8′-octahydro-3,3′-biquinoline-2,2′(1H,1′H)-dione], the “hCB2 EC50 class” value in test [1] was “+A”. The “rCB2 EC50 class” value in test [2] is “+A”. Also, the “hCB1 EC50 class” value in test [3] is on record as “+C”.
